Patent US20250230147A1, “LACTAMS AS CBL-B INHIBITORS” (Genentech, Inc., priority 2021, published 2025)

Legend:
c-Cbl = c-Cbl (Homo sapiens (Human), UniProt P22681); assay: C-Cbl LCK Ub TR-FRET assay (c-cbl Lck HTRF); type: biochemical; conditions: for (fold-selectivity): C-cbl Lck HTRF IC50 relative to Cbl-b Lck HTRF IC50
Method in brief: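 Detection reagents added, brief spin, 20 min RT. IC50 fit normalized to no-LCK (low) and DMSO (high) controls.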

Cbl-b = Cbl-b (Homo sapiens (Human), UniProt Q13191); assay: Cbl-b LCK Ub TR-FRET assay (Cbl-b Lck HTRF); type: biochemical
Method in brief: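 Biotin-Cbl-b preincubated with compound (10-point 3-fold series) 60 min, then His-LCK with 1 mM ATP (2× mixture) added for 90 min at room temperature. Ubiquitination detected by TR-FRET using HA-ubiquitin/UBE2D2 adduct, anti-HA-D2 and streptavidin-Eu; IC50 normalised to no-LCK and DMSO controls.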

c-Cbl, sequence (P22681 47-435): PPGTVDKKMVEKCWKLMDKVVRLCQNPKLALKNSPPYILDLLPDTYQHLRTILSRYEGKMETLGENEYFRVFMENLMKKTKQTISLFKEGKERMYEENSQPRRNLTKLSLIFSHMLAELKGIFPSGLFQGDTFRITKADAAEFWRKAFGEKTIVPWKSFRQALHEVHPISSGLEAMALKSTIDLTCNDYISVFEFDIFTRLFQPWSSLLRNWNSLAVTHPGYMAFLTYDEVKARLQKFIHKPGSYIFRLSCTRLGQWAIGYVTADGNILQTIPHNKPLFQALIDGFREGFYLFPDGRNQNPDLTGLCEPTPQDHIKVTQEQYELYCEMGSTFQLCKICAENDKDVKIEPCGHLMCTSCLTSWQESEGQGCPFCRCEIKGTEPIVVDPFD
Cbl-b, sequence (Q13191 40-426): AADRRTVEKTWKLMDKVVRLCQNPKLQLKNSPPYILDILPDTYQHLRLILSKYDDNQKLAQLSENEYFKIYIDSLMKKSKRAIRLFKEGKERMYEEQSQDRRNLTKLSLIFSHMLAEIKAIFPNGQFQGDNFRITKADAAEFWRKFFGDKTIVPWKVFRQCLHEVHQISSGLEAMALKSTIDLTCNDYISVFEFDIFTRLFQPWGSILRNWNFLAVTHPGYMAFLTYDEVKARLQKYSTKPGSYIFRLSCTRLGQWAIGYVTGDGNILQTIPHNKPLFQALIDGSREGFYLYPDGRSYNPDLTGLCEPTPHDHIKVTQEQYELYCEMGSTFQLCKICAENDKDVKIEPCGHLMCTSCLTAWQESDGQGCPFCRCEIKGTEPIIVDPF

Row | Compound | IC50 (c-Cbl) [nM] | (fold-selectivity) (c-Cbl) | IC50 (Cbl-b) [nM]
1 | CC(C)[C@H]1CN(C)CCN1Cc1cc2c(c(C(F)(F)F)c1)CN(c1cccc(C3([C@@H](F)c4n[nH]cc4C(F)(F)F)COC3)c1)C2=O [Compound 377, 2-(3-(3-((R)-fluoro(4-(trifluoromethyl)-1H-pyrazol-3-yl)methyl)oxetan-3-yl)phenyl)-6-(((S)-2-isopropyl-4-methylpiperazin-1-yl)methyl)-4-(trifluoromethyl)isoindolin-1-one] | 20000 | (2.0x) | 10000
2 | Cl.Cn1cnnc1CC1(c2cc(NCc3ccncc3)nc(N3Cc4c(cc(CNC5(C)CCC5)cc4C(F)(F)F)C3=O)c2)CCC1 [Compound 380, 2-(4-(1-((4-methyl-4H-1,2,4-triazol-3-yl)methyl)cyclobutyl)-6-((pyridin-4-ylmethyl)amino)pyridin-2-yl)-6-(((1-methylcyclobutyl)amino)methyl)-4-(trifluoromethyl)isoindolin-1-one hydrochloride] | 99 | (101x) | 89
3 | Cn1cnnc1CC1(c2cc(OC3CCCC3)nc(N3Cc4c(cccc4C(F)(F)F)C3=O)c2)COC1 [Compound 381, 2-(6-(cyclopentyloxy)-4-(3-((4-methyl-4H-1,2,4-triazol-3-yl)methyl)oxetan-3-yl)pyridin-2-yl)-4-(trifluoromethyl)isoindolin-1-one] | 7300 | (5.9x) | 1100
4 | Cn1cnnc1C(F)(F)C1(c2cccc(N3Cc4c(cc(CN5CC(C)(O)C5)cc4C(F)(F)F)C3=O)c2)CC(F)(F)C1 [Compound 383, 2-(3-(1-(difluoro(4-methyl-4H-1,2,4-triazol-3-yl)methyl)-3,3-difluorocyclobutyl)phenyl)-6-((3-hydroxy-3-methylazetidin-1-yl)methyl)-4-(trifluoromethyl)isoindolin-1-one] | 380 | (0.77x) | 490
5 | C[C@@H](N)c1cc2c(c(C(F)(F)F)c1)CN(c1cccc(C3(Cc4nncn4C)CC(F)(F)C3)c1)C2=O [Compound 385, (R)-6-(1-aminoethyl)-2-(3-(3,3-difluoro-1-((4-methyl-4H-1,2,4-triazol-3-yl)methyl)cyclobutyl)phenyl)-4-(trifluoromethyl)isoindolin-1-one] | 22 | (0.93x) | 24
6 | Cn1cnnc1[C@H](F)C1(c2cccc(N3Cc4c(cc(CN)cc4C(F)(F)F)C3=O)c2)CCC1 [Compound 386, (R)-6-(aminomethyl)-2-(3-(1-(fluoro(4-methyl-4H-1,2,4-triazol-3-yl)methyl)cyclobutyl)phenyl)-4-(trifluoromethyl)isoindolin-1-one] | 31 | (0.98x) | 32

Continued by falling IC50 (c-Cbl), values first:

Row | IC50 (c-Cbl) [nM] | (fold-selectivity) (c-Cbl) | IC50 (Cbl-b) [nM] | Compound
7 | 20000 | (1.0x) | 20000 | CC(C)[C@H]1CN(C)CCN1Cc1cc2c(c(C(F)(F)F)c1)CN(c1cccc(C3([C@H](F)c4n[nH]cc4C(F)(F)F)COC3)c1)C2=O [Compound 376, 2-(3-(3-((S)-fluoro(4-(trifluoromethyl)-1H-pyrazol-3-yl)methyl)oxetan-3-yl)phenyl)-6-(((S)-2-isopropyl-4-methylpiperazin-1-yl)methyl)-4-(trifluoromethyl)isoindolin-1-one]
8 | 20000 | (24x) | 820 | Cn1cnnc1CC1(c2cc(NC3C4CCC3C4)nc(N3Cc4c(cccc4C(F)(F)F)C3=O)c2)COC1 (stereo not drawn) [Compound 382, 2-(6-(bicyclo[2.1.1]hexan-5-ylamino)-4-(3-((4-methyl-4H-1,2,4-triazol-3-yl)methyl)oxetan-3-yl)pyridin-2-yl)-4-(trifluoromethyl)isoindolin-1-one]
9 | 25 | (1.1x) | 22 | C[C@H](N)c1cc2c(c(C(F)(F)F)c1)CN(c1cccc(C3(Cc4nncn4C)CC(F)(F)C3)c1)C2=O [Compound 384, (S)-6-(1-aminoethyl)-2-(3-(3,3-difluoro-1-((4-methyl-4H-1,2,4-triazol-3-yl)methyl)cyclobutyl)phenyl)-4-(trifluoromethyl)isoindolin-1-one]
